In patent US20150065343A1, “Acrylamide compounds for combating invertebrate pests” (priority 2012, published 2015):

Legend:
Type in all cases: in vivo
[1] = tested on: Orchid thrips (dichromothrips corbetti); assay: B.5 Orchid thrips floral-immersion test; conditions: 96 h, adult thrips, after 4 days, read-out: mortality in comparison with untreated controls
Experimental: B.5 Orchid thrips (dichromothrips corbetti)
Dichromothaps corbetti adults used for bioassay were obtained from a colony maintained continuously under laboratory conditions. For testing purposes, the test compound was diluted to a concentration of 500 ppm (wt compound: vol diluent) in a 1:1 mixture of acetone:water (vol:vol), plus 0.01% vol/vol Kinetic® surfactant.
Thrips potency of each compound was evaluated by using a floral-immersion technique. Plastic petri dishes were used as test arenas. All petals of individual, intact orchid flowers were dipped into treatment solution and allowed to dry. Treated flowers were placed into individual petri dishes along with 10-15 adult thrips. The petri dishes were then covered with lids. All test arenas were held under continuous light and a temperature of about 28° C. for duration of the assay. After 4 days, the numbers of live thrips were counted on each flower, and along inner walls of each petri dish. The level of thrips mortality was extrapolated from pre-treatment thrips numbers.

[2] = tested on: Green peach aphid (Myzus persicae); assay: B.3 Green peach aphid systemic test, artificial diet in 96-well plates; conditions: 72 h, adult aphids, 3 days, read-out: mortality in comparison with untreated controls
Excerpt: B.3 Green peach aphid (Myzus persicae)
For evaluating control of green peach aphid (Myzus persicae) through systemic means the test unit consisted of 96-well-microtiter plates containing liquid artificial diet under an artificial membrane.
The compounds were formulated using a solution containing 75% v/v water and 25% v/v DMSO. Different concentrations of formulated compounds were pipetted into the aphid diet, using a custom built pipetter, at two replications.
After application, 5-8 adult aphids were placed on the artificial membrane inside the microtiter plate wells. The aphids were then allowed to suck on the treated aphid diet and incubated at about 23+1° C. and about 50+5% relative humidity for 3 days. Aphid mortality and fecundity was then visually assessed.

[3] = tested on: Boll weevil (Anthonomus grandis); assay: B.10 Boll weevil microtiter plate test on insect diet with eggs; conditions: 120 h, sprayed onto insect diet at 20 μl, egg and larval mortality after 5 days, read-out: mortality in comparison with untreated controls
Experimental: B.10 Boll weevil (Anthonomus grandis)
For evaluating control of boll weevil (Anthonomus grandis) the test unit consisted of 24-well-microtiter plates containing an insect diet and 20-30 A. grandis eggs.
The compounds were formulated using a solution containing 75% v/v water and 25% v/v DMSO. Different concentrations of formulated compounds were sprayed onto the insect diet at 20 μl, using a custom built micro atomizer, at two replications.
After application, microtiter plates were incubated at about 23±1° C. and about 50±5% relative humidity for 5 days. Egg and larval mortality was then visually assessed.

[4] = tested on: Southern armyworm (Spodoptera eridania); assay: B.7 Southern armyworm spray test on lima bean plants; conditions: foliar, 96 h, sprayed lima bean foliage, armyworm larvae, 4 days after treatment, read-out: mortality in comparison with untreated controls
Experimental: B.7 Southern armyworm (Spodoptera eridania)
(§1) The active compounds were formulated in cyclohexanone as a 10,000 ppm solution supplied in tubes. The tubes were inserted into an automated electrostatic sprayer equipped with an atomizing nozzle and they served as stock solutions for which lower dilutions were made in 50% acetone:50% water (v/v). A nonionic surfactant (Kinetic®) was included in the solution at a volume of 0.01% (v/v).
Lima bean plants (variety Sieva) were grown 2 plants to a pot and selected for treatment at the 1st true leaf stage. Test solutions were sprayed onto the foliage by an automated electrostatic plant sprayer equipped with an atomizing spray nozzle. The plants were dried in the sprayer fume hood and then removed from the sprayer. Each pot was placed into perforated plastic bags with a zip closure. About 10 to 11 armyworm larvae were placed into the bag and the bags zipped closed. Test plants were maintained in a growth room at about 25° C. and about 20-40% relative humidity for 4 days, avoiding direct exposure to fluorescent light (24 hour photoperiod) to prevent trapping of heat inside the bags. Mortality and reduced feeding were assessed 4 days after treatment, compared to untreated control plants.

[5] = tested on: Vetch aphid (Megoura viciae); assay: B.8 Vetch aphid test on broad bean leaf disks in 24-well plates; conditions: foliar, 120 h, sprayed onto leaf disks at 2.5 μl, adult aphids, 5 days, read-out: mortality in comparison with untreated controls
Experimental: B.8 Vetch aphid (Megoura viciae)
For evaluating control of vetch aphid (Megoura viciae) through contact or systemic means the test unit consisted of 24-well-microtiter plates containing broad bean leaf disks.
The compounds were formulated using a solution containing 75% v/v water and 25% v/v DMSO. Different concentrations of formulated compounds were sprayed onto the leaf disks at 2.5 μl, using a custom built micro atomizer, at two replications.
After application, the leaf disks were air-dried and 5-8 adult aphids placed on the leaf disks inside the microtiter plate wells. The aphids were then allowed to suck on the treated leaf disks and incubated at about 23±1° C. and about 50±5% relative humidity for 5 days. Aphid mortality and fecundity was then visually assessed.

[6] = tested on: Tobacco budworm (Heliothis virescens); assay: B.9 Tobacco budworm microtiter plate test on insect diet with eggs; conditions: 120 h, sprayed onto insect diet at 10 μl, egg and larval mortality after 5 days, read-out: mortality in comparison with untreated controls
Experimental: B.9 Tobacco budworm (Heliothis virescens) HELVI
For evaluating control of tobacco budworm (Heliothis virescens) the test unit consisted of 96-well-microtiter plates containing an insect diet and 15-25 H. virescens eggs.
The compounds were formulated using a solution containing 75% v/v water and 25% v/v DMSO. Different concentrations of formulated compounds were sprayed onto the insect diet at 10 μl, using a custom built micro atomizer, at two replications.
(§2) After application, microtiter plates were incubated at about 28±1° C. and about 80±5% relative humidity for 5 days. Egg and larval mortality was then visually assessed.

[7] = tested on: Diamond back moth (Plutella xylostella); assay: B.2 Diamond back moth leaf-dip test on Chinese cabbage; conditions: dipped Chinese cabbage leaves, mortality recorded 24, 72 and 120 hours after treatment, read-out: mortality in comparison with untreated controls
Experimental: B.2 Diamond back moth (Plutella xylostella)
Leaves of Chinese cabbage were dipped in test solution and air-dried. Treated leaves were placed in petri dished lined with moist filter paper. Mortality was recorded 24, 72, and 120 hours after treatment.

[8] = tested on: Silverleaf whitefly (bernisia argentifolii); assay: B.6 Silverleaf whitefly spray test on cotton plants; conditions: Bemisia argentifolii, 72 h, sprayed cotton plants, whitefly adults, 3 days after treatment, read-out: mortality in comparison with untreated controls
Excerpt: B.6 Silverleaf whitefly (bernisia argentifolii)
as §1
Cotton plants at the cotyledon stage (one plant per pot) were sprayed by an automated electrostatic plant sprayer equipped with an atomizing spray nozzle. The plants were dried in the sprayer fume hood and then removed from the sprayer. Each pot was placed into a plastic cup and about 10 to 12 whitefly adults (approximately 3-5 days old) were introduced. The insects were collected using an aspirator and a nontoxic Tygon® tubing connected to a barrier pipette tip. The tip, containing the collected insects, was then gently inserted into the soil containing the treated plant, allowing insects to crawl out of the tip to reach the foliage for feeding. Cups were covered with a reusable screened lid. […] Mortality was assessed 3 days after treatment, compared to untreated control plants.

[9] = tested on: Mediterranean fruitfly (Ceratitis capitata); assay: B.4 Mediterranean fruitfly microtiter plate test on insect diet with eggs; conditions: 120 h, sprayed onto insect diet at 5 μl, egg and larval mortality after 5 days, read-out: mortality in comparison with untreated controls
Experimental: B.4 Mediterranean fruitfly (Ceratitis capitata)
For evaluating control of Mediterranean fruitfly (Ceratitis capitata) the test unit consisted of microtiter plates containing an insect diet and 50-80 C. capitate eggs.
The compounds were formulated using a solution containing 75% v/v water and 25% v/v DMSO. Different concentrations of formulated compounds were sprayed onto the insect diet at 5 μl, using a custom built micro atomizer, at two replications.
as §2

CNC(=O)N/N=C/c1sc(/C=C/C(=O)NC(c2cccc(C(F)(F)F)c2)C(F)(F)F)cc1C (centres unmarked) [Compound 1-1, (E)-3-[4-methyl-5-[(E)-(methylcarbamoylhydrazono)methyl]-2-thienyl]-N-[2,2,2-trifluoro-1-[3-(trifluoromethyl)phenyl]ethyl]prop-2-enamide]
≥ 75%: mortality at 500 ppm [1] | mortality at 2500 ppm [2] | mortality at 2500 ppm [3] | mortality at 300 ppm [4] | mortality at 2500 ppm [5] | mortality at 2500 ppm [6] | mortality at 500 ppm [7] | mortality at 300 ppm [8] | mortality at 2500 ppm [9]

Cc1cc(/C=C/C(=O)NC(c2cccc(C(F)(F)F)c2)C(F)(F)F)sc1C(=O)NC1CC1 (centres unmarked) [Compound 2-1, N-cyclopropyl-3-methyl-5-[(E)-3-oxo-3-[[2,2,2-trifluoro-1-[3-(trifluoromethyl)phenyl]-ethyl]amino]prop-1-enyl]thiophene-2-carboxamide]
≥ 75%: mortality at 500 ppm [1] | mortality at 2500 ppm [2] | mortality at 2500 ppm [3] | mortality at 300 ppm [4] | mortality at 2500 ppm [5] | mortality at 2500 ppm [6] | mortality at 500 ppm [7] | mortality at 2500 ppm [9]

CCN(Cc1sc(/C=C/C(=O)NC(c2cccc(C(F)(F)F)c2)C(F)(F)F)cc1C)C(=O)CS(C)(=O)=O (centres unmarked) [Compound 3-1, (E)-3-[5-[[Ethyl-(2-methylsulfonylacetyl)amino]methyl]-4-methyl-2-thienyl]-N-[2,2,2-trifluoro-1-[3-(trifluoromethyl)phenyl]ethyl]prop-2-enamide]
≥ 75%: mortality at 500 ppm [1] | mortality at 2500 ppm [2] | mortality at 2500 ppm [3] | mortality at 300 ppm [4]

CSCC(=O)NCc1sc(/C=C/C(=O)NC(c2cccc(C(F)(F)F)c2)C(F)(F)F)cc1C (centres unmarked) [Compound 3-6, (E)-3-[4-Methyl-5-[[(2-methylsulfanylacetyl)amino]methyl]-2-thienyl]-N-[2,2,2-trifluoro-1-[3-(trifluoromethyl)phenyl]ethyl]prop-2-enamide]
≥ 75%: mortality at 500 ppm [1] | mortality at 2500 ppm [2] | mortality at 2500 ppm [3]

Cc1sc(/C=C/C(=O)NC(c2cccc(C(F)(F)F)c2)C(F)(F)F)cc1C(=O)NC1CC1 (centres unmarked) [Compound 4-1, N-Cyclopropyl-2-methyl-5-[(E)-3-oxo-3-[[2,2,2-trifluoro-1-[3-(trifluoromethyl)phenyl]-ethyl]amino]prop-1-enyl]thiophene-3-carboxamide]
≥ 75%: mortality at 2500 ppm [2] | mortality at 2500 ppm [3] | mortality at 300 ppm [4] | mortality at 300 ppm [8] | mortality at 2500 ppm [9]
